Several values for one entry are separate records, joined by “and”; a condition that tells them apart may be missing. Equal entries are not always repeated. Inconclusive results and toxic doses are left out. The calls were made as follows: active = survival T/C of 150% or more; inactive = T/C below 125% in these data.
System: BDF1 mice, P388 leukemia ip, median survival T/C
Test: NCI In Vivo Anticancer Drug Screen. Data for tumor model P388 Leukemia (intraperitoneal) in B6D2F1 (BDF1) mice
Conditions: endpoint: median survival time, higher = longer survival
How it was run: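 Reported as T/C, where T is the survival measurement in dosed animals and C the same measurement in vehicle controls.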

[1] = dose: 1.56 mg/kg/injection, schedule: Q01DX009 (ip), vehicle: saline
[2] = dose: 6.25 mg/kg/injection, schedule: Q01DX009 (ip), vehicle: saline
[3] = dose: 100.0 mg/kg/injection, schedule: Q04DX003 (ip), vehicle: Klucel (hydroxypropylcellulose) (HPC)
[4] = dose: 200.0 mg/kg/injection, schedule: Q04DX003 (ip), vehicle: Klucel (hydroxypropylcellulose) (HPC)
[5] = dose: 400.0 mg/kg/injection, schedule: Q04DX003 (ip), vehicle: Klucel (hydroxypropylcellulose) (HPC)
[6] = dose: 25.0 mg/kg/injection, schedule: Q01DX009 (ip), vehicle: Klucel (hydroxypropylcellulose) (HPC)
[7] = dose: 50.0 mg/kg/injection, schedule: Q01DX009 (ip), vehicle: Klucel (hydroxypropylcellulose) (HPC)
[8] = dose: 100.0 mg/kg/injection, schedule: Q01DX009 (ip), vehicle: Klucel (hydroxypropylcellulose) (HPC)
[9] = dose: 200.0 mg/kg/injection, schedule: Q01DX009 (ip), vehicle: Klucel (hydroxypropylcellulose) (HPC)
[10] = dose: 100.0 mg/kg/injection, schedule: Q01DX009 (ip), vehicle: saline with Tween-80
[11] = dose: 200.0 mg/kg/injection, schedule: Q01DX009 (ip), vehicle: saline with Tween-80

Measured: T/C

CC(=O)OCc1c(O)c2c(c(O)c1COC(C)=O)C(=O)C=CC2=O
inactive: [1] 107 % of control | dose: 3.12 mg/kg/injection, schedule: Q01DX009 (ip), vehicle: saline 96 % of control | [2] 105 % of control | dose: 12.5 mg/kg/injection, schedule: Q01DX009 (ip), vehicle: saline 87 % of control | dose: 25.0 mg/kg/injection, schedule: Q01DX009 (ip), vehicle: saline 94 % of control

Cc1cc(C)c(NS(=O)(=O)c2ccc([N+](=O)[O-])cc2)c(C)c1
inactive: dose: 75.0 mg/kg/injection, schedule: Q01DX001 (ip), vehicle: saline with Tween-80 100 % of control | dose: 150.0 mg/kg/injection, schedule: Q01DX001 (ip), vehicle: saline with Tween-80 90 % of control | dose: 300.0 mg/kg/injection, schedule: Q01DX001 (ip), vehicle: saline with Tween-80 100 % of control

COC(OC)c1cc(=O)[nH]c(=S)n1Cl
inactive: [3] 100 % of control | [4] 104 % of control | [5] 100 % of control

CCOC(=O)Nc1cc(NC/C(=N/O)c2ccc(OC)cc2)c([N+](=O)[O-])c(N)n1
inactive: dose: 12.5 mg/kg/injection, schedule: Q01DX001 (ip), vehicle: Klucel (hydroxypropylcellulose) (HPC) 93 % of control | dose: 25.0 mg/kg/injection, schedule: Q01DX001 (ip), vehicle: Klucel (hydroxypropylcellulose) (HPC) 93 % of control | dose: 50.0 mg/kg/injection, schedule: Q01DX001 (ip), vehicle: Klucel (hydroxypropylcellulose) (HPC) 93 % of control

C=CC(c1ccccc1)C(O)(Cc1ccccc1)Cc1ccccc1 (configuration not stated)
inactive: dose: 12.5 mg/kg/injection, schedule: Q01DX009 (ip), vehicle: DMSO 116 % of control | dose: 50.0 mg/kg/injection, schedule: Q01DX009 (ip), vehicle: DMSO 100 % of control

CC(=O)N1CCc2nc3ccccc3cc21
inactive: dose: 24.75 mg/kg/injection, schedule: Q01DX009 (ip), vehicle: Klucel (hydroxypropylcellulose) (HPC) 123 % of control | [6] 105 % of control | dose: 37.5 mg/kg/injection, schedule: Q01DX009 (ip), vehicle: Klucel (hydroxypropylcellulose) (HPC) 104 % of control and 105 % of control | dose: 56.25 mg/kg/injection, schedule: Q01DX009 (ip), vehicle: Klucel (hydroxypropylcellulose) (HPC) 104 % of control and 110 % of control

CC1=C(C)C2(C)C1(C)C1(C)C(C)=C(C)C21C (configuration not stated)
inactive: [7] 100 % of control | [8] 90 % of control | [9] 105 % of control

C[C@]12CC[C@@H]3c4ccc(O)cc4CC[C@H]3[C@@H]1C[C@H](O)C2
inactive: [8] 100 % of control | [3] 100 % of control | [9] 95 % of control | [4] 100 % of control | dose: 400.0 mg/kg/injection, schedule: Q01DX009 (ip), vehicle: Klucel (hydroxypropylcellulose) (HPC) 112 % of control | [5] 91 % of control

CCCCc1ccc(C#N)nc1
inactive: dose: 50.0 mg/kg/injection, schedule: Q01DX009 (ip), vehicle: saline with Tween-80 98 % of control | [10] 106 % of control | [11] 108 % of control

[N-]=[N+]=NC(=O)c1ccccn1
inactive: dose: 25.0 mg/kg/injection, schedule: Q01DX009 (ip), vehicle: saline with Tween-80 101 % of control

C=CC(C)(O)/C=C/C=C(\C)C(CC1OC1(C)C)OC(=O)/C(C)=C\C (configuration not stated)
inactive: dose: 0.78 mg/kg/injection, schedule: Q01DX009 (ip), vehicle: saline 106 % of control | [1] 95 % of control | dose: 3.13 mg/kg/injection, schedule: Q01DX009 (ip), vehicle: saline 95 % of control | [2] 113 % of control

O=C(/C=N/O)Nc1cc(Cl)ccc1Cl
inactive: [10] 95 % of control | dose: 100.0 mg/kg/injection, schedule: Q04DX003 (ip), vehicle: saline with Tween-80 100 % of control | [11] 90 % of control | dose: 200.0 mg/kg/injection, schedule: Q04DX003 (ip), vehicle: saline with Tween-80 100 % of control | dose: 400.0 mg/kg/injection, schedule: Q01DX009 (ip), vehicle: saline with Tween-80 90 % of control | dose: 400.0 mg/kg/injection, schedule: Q04DX003 (ip), vehicle: saline with Tween-80 100 % of control

N#CC(Br)C(N)=O (configuration not stated)
inactive: dose: 2.5 mg/kg/injection, schedule: Q01DX009 (ip), vehicle: saline 98 % of control | dose: 5.0 mg/kg/injection, schedule: Q01DX009 (ip), vehicle: saline 120 % of control

COc1ccc(C(N)C(=O)O)cc1 (configuration not stated)
inactive: dose: 100.0 mg/kg/injection, schedule: Q01DX001 (ip), vehicle: Klucel (hydroxypropylcellulose) (HPC) 100 % of control | dose: 200.0 mg/kg/injection, schedule: Q01DX001 (ip), vehicle: Klucel (hydroxypropylcellulose) (HPC) 109 % of control | dose: 400.0 mg/kg/injection, schedule: Q01DX001 (ip), vehicle: Klucel (hydroxypropylcellulose) (HPC) 109 % of control

CC(=O)Nc1c([N+](=O)[O-])ccc(Cl)c1Cl
inactive: [6] 104 % of control | [7] 87 % of control | [8] 100 % of control | [3] 100 % of control

Source: PubChem BioAssay AID328 (DTP/NCI, 2004)
